Measurements published in patent US7256186B2, “Gamma secretase inhibitors” (Schering Corporation, priority 2002, dated 2007).
Where two headings read alike, the source gives them in different places.

Target: T1, Gamma secretase (Homo sapiens, UniProt P49768)
T1 construct: endogenous in cells; host or cells: Salt-washed membranes of 293 T-REx cells, clone pTRE.15; Only the substrate SPC99-Lon is transfected (pcDNA4/TO, tetracycline-induced)
Test: Gamma secretase activity assay on membranes of 293 cells expressing SPC99-Lon (Aβ 40 / Aβ 42 measured by ECL immunoassay)
Format: biochemical
Settings: membrane γ-secretase assay
Experimental: Upon insertion into the membrane, the 17 amino acid signal peptide is processed, leaving an additional leucine at the N-terminus of Aβ. SPC99-lon was cloned into the pcDNA4/TO vector (Invitrogen) and transfected into 293 cells stably transfected with pcDNA6/TR, which is provided in the T-REx system (Invitrogen). The transfected cells were selected in Dulbecco's modified Eagle's media (DMEM) supplemented with 10% fetal bovine serum, 100 units/mL penicillin, 100 µg/mL streptomycin, 250 µg/mL zeocin, and 5 µg/mL blasticidin (Invitrogen). Colonies were screened for Aδ production by inducing C99 expression with 0.1 g/mL tetracycline for 16–20 h and analyzing conditioned media with a sandwich immunoassay (see below). One of the clones, designated as pTRE.15, was used in these studies.
C99 expression in cells was induced with […] tetracycline for 20 h. The cells were pretreated with […] 12-myristate 13-acetate (PMA) and […] A (BFA) for 5–6 h at 37 C before harvesting. The cells were washed 3 times with cold phosphate-buffered saline (PBS) and harvested in buffer A containing 20 mM Hepes (pH 7.5), 250 mM sucrose, 50 mM KCl, 2 mM EDTA, 2 mM EGTA, and Complete protease inhibitor tablets (Roche Molecular Biochemicals). The cell pellets were flash-frozen in liquid nitrogen and stored at −70 C before use.
To make membranes, the cells were resuspended in buffer A and lysed in a nitrogen bomb at 600 psi. The cell lysate was centrifuged at 1500 g for 10 min to remove nuclei and large cell debris. The supernatant was centrifuged at 100000 g for 1 h. The membrane pellet was resuspended in buffer A plus 0.5 M NaCl, and the membranes were collected by centrifugation at 200000 g for 1 h. The salt-washed membrane pellet was washed again in buffer A and centrifuged at 100000 g for 1 h. The final membrane pellet was resuspended in a small volume of buffer A using a Teflon-glass homogenizer. The protein concentration was determined, and membrane aliquots were flash-frozen in liquid nitrogen and stored at −70 C. γ-Secretase Reaction and Aβ Analysis
To measure γ-secretase activity, membranes were incubated at 37 C for 1 h in 50 L of buffer containing 20 mM Hepes (pH 7.0) and 2 mM EDTA. At the end of the incubation, Aβ 40 and Aβ 42 were measured using an electrochemiluminescence (ECL)-based immunoassay. Aβ 40 was identified with antibody pairs TAG-G2–10 and biotin-W02, while Aβ 42 was identified with TAG-G2–11 and biotin-4G8. The ECL signal was measured using an ECL-M8 instrument (IGEN International, Inc.) according to the manufacturer's instructions. The data presented were the means of the duplicate or triplicate measurements in each experiment.

[1] = 37 C, 1 h, read-out: IC50 (μM), γ-secretase inhibitory activity
[2] = range stated for a group of examples, read-out: IC50 within the range stated, gamma secretase assay

SMILES	IC50 [1] [µM]	IC50 [2] [µM]
O=C(OC[C@H]1CCC[C@@H](c2cc(F)cc(F)c2)N1S(=O)(=O)c1ccc(Cl)cc1)N1CCC(N2CCCCC2)CC1 [Example 67-AT]	0.0038	
CC1(N2CCCCC2)CCN(C(=O)OC[C@H]2CCC[C@@H](c3cccc(F)c3)N2S(=O)(=O)c2ccc(Cl)cc2)CC1 [Example 67-BA]		0.0002 to 0.015
O=C(OC[C@H]1CCC[C@@H](c2ccc(F)c(F)c2)N1S(=O)(=O)c1ccc(Cl)cc1)N1CCC(N2CCCCC2)CC1 [Example 67-BD]		0.0002 to 0.015
NC(=O)C1(N2CCCCC2)CCN(C(=O)OC[C@H]2CCC[C@@H](c3cc(F)cc(F)c3)N2S(=O)(=O)c2ccc(Cl)cc2)CC1 [Example 67-BH]		0.0002 to 0.015
O=C(OC[C@H]1CCC[C@@H](c2cccc(F)c2)N1S(=O)(=O)c1ccc(Cl)cc1)N1CCC(N2CCC(F)(F)CC2)CC1 [Example 67-N]		0.0002 to 0.015
C=C1CCN(C2CCN(C(=O)OC[C@H]3CCC[C@@H](c4cccc(F)c4)N3S(=O)(=O)c3ccc(Cl)cc3)CC2)CC1 [Example 67-P]		0.0002 to 0.015
O=C(OC[C@H]1CCC[C@@H](c2cccc(F)c2)N1S(=O)(=O)c1ccc(F)cc1)N1CCC(N2CCCCC2)CC1 [Example 67-U]		0.0002 to 0.015
CC(C)N1CCN(C(=O)OC2([C@H]3CCC[C@@H](C4CC4)N3S(=O)(=O)c3ccc(Cl)cc3)CC2)CC1 [Example 161-E]		0.0002 to 0.015
O=C(OC1(C2CCCC(c3cccc(F)c3)N2S(=O)(=O)c2ccc(Cl)cc2)CC1)N1CCC(N2CCCCC2)CC1 (centres unmarked) [Example 173-A]	0.0007	0.0002 to 0.015
O=C(OC1(C2CCCC(c3cccc(F)c3)N2S(=O)(=O)c2ccc(Cl)cc2)CC1)N1CCN(CCO)CC1 (centres unmarked) [Example 173-C]	0.0018	0.0002 to 0.015
NC(=O)C1(N2CCCCC2)CCN(C(=O)OC2(C3CCCC(c4cccc(F)c4)N3S(=O)(=O)c3ccc(Cl)cc3)CC2)CC1 (centres unmarked) [Example 173-E]	0.0027	0.0002 to 0.015
O=C(OC1(C2CCCC(c3cccc(F)c3)N2S(=O)(=O)c2ccc(Cl)cc2)CC1)N1CCC2(CC1)NCNC2=O (centres unmarked) [Example 173-G]		0.0002 to 0.015
O=C(OC1([C@H]2CCC[C@@H](c3ccc(F)cc3F)N2S(=O)(=O)c2ccc(Cl)cc2)CC1)N1CCC(N2CCCCC2)CC1 [Example 173-I]		0.0002 to 0.015
NC(=O)C1(N2CCCCC2)CCN(C(=O)OC2([C@H]3CCC[C@@H](c4cc(F)cc(F)c4)N3S(=O)(=O)c3ccc(Cl)cc3)CC2)CC1 [Example 173-J]	0.0008	0.0002 to 0.015
O=C(OC1([C@H]2CCC[C@@H](c3cc(F)cc(F)c3)N2S(=O)(=O)c2ccc(Cl)cc2)CC1)N1CCC2(CC1)C(=O)NCN2c1ccccc1 [Example 173-L]		0.0002 to 0.015
O=C(OC1([C@H]2CCC[C@@H](c3cc(F)cc(F)c3)N2S(=O)(=O)c2ccc(Cl)cc2)CC1)N1CCC(N2CCCCC2)CC1 [Example 173]	0.0002	0.0002 to 0.015

More lines, now with the values ahead:

IC50 [1] [µM]	IC50 [2] [µM]	SMILES
	0.0002 to 0.015	Cc1cc([C@@H]2CCC[C@H](COC(=O)N3CCC(N4CCCCC4)CC3)N2S(=O)(=O)c2ccc(Cl)cc2)ccc1F [Example 67-BE]
0.0023	0.0002 to 0.015	O=C(OC[C@H]1CCC[C@@H](c2cc(F)cc(F)c2)N1S(=O)(=O)c1ccc(Cl)cc1)N1CCC(N2CCCCC2)CC1 [Example 67-BG]
	0.0002 to 0.015	O=C(OC[C@H]1CCC[C@@H](c2cc(F)ccc2F)N1S(=O)(=O)c1ccc(Cl)cc1)N1CCC(N2CCCCC2)CC1 [Example 67-BL]
0.0027	0.0002 to 0.015	O=C(OC[C@H]1CCC[C@@H](c2cccc(F)c2)N1S(=O)(=O)c1ccc(Cl)cc1)N1CCC(N2CCCCC2)CC1 [Example 67-B]
	0.0002 to 0.015	O=C(OC[C@H]1CCC[C@@H](c2ccccc2F)N1S(=O)(=O)c1ccc(Cl)cc1)N1CCC(N2CCCCC2)CC1 [Example 67-E]
	0.0002 to 0.015	O=C(OC[C@@H]1CCC[C@H](C2CC2)N1S(=O)(=O)c1ccc(Cl)cc1)N1CCN(C2CCCCC2)CC1 [Example 160-B]
	0.0002 to 0.015	CC1CC(N2CCCCC2)CCN1C(=O)OC[C@@H]1CCC[C@H](C2CC2)N1S(=O)(=O)c1ccc(Cl)cc1 (some centres unmarked) [Example 160-K]
0.0028	0.0002 to 0.015	O=C(OC1([C@H]2CCC[C@@H](C3CC3)N2S(=O)(=O)c2ccc(Cl)cc2)CC1)N1CCC(N2CCCCC2)CC1 [Example 161-A]
	0.0002 to 0.015	O=C(OC1([C@H]2CCC[C@@H](C3CC3)N2S(=O)(=O)c2ccc(Cl)cc2)CC1)N1CCN(CC2CC2)CC1 [Example 161-F]
	0.0002 to 0.015	O=C(OC1(C2CCCC(c3cccc(F)c3)N2S(=O)(=O)c2ccc(Cl)cc2)CC1)N1CCN(C2CCCCC2)CC1 (centres unmarked) [Example 173-B]
	0.0002 to 0.015	O=C(OC1([C@H]2CCC[C@@H](c3cc(F)cc(F)c3)N2S(=O)(=O)c2ccc(Cl)cc2)CC1)N1CCN(C2CCCCC2)CC1 [Example 173-K]
